Measured values reported in patent US20170035708A1, “USE OF N-(4-TERT-BUTYLBENZYL)-3-CHLORO-N-[2-(4-CHLORO-3-ETHYL-PHENYL)-ETHYL]-2-FLUORO-5-TRIFLUOROMETHYL-BENZAMIDE FOR THE TREATMENT OF EYE DISEASES” (Hoffmann-La Roche Inc., priority 2013, published 2017).

Key:
[1] = Pharmacokinetic properties and excretion in the cynomolgus monkey; assay type: in vivo
Description: (§1) The pharmacokinetic (PK) properties of N-(4-tert-Butyl-benzyl)-3-chloro-N-[2-(4-chloro-3-ethyl-phenyl)-ethyl]-2-fluoro-5-trifluoromethyl-benz-amide were assessed in the rat and cynomolgus monkey. […] The very high protein binding, in combination with moderate membrane permeability, is the likely cause for the low volume of distribution observed in vivo.
(§2) In the rat and cynomolgus monkey, the major excretion route was the bile and feces, independent of the route of administration (approximately 92% of administered dose eliminated). Less than 1% of the dose was eliminated renally.

[2] = test system: HDL-C, LDL-C, apoA-I, apoB-100; assay: Plasma lipids and apolipoproteins after multiple doses for 14 days in clinical study; assay type: in vivo, human
Description: The CETP inhibition achieved with multiple doses of up to 420 mg N-(4-tert-Butyl-benzyl)-3-chloro-N-[2-(4-chloro-3-ethyl-phenyl)-ethyl]-2-fluoro-5-trifluoromethyl-benz-amide for 14 days in healthy subjects was associated with increase of HDL-C and apolipoprotein A-I (apoA-I) and decrease in LDL-C and apolipoprotein B-100 (apoB-100). […] The maximum mean increase from baseline ranged from 48% to 55% with the 180 and 420 mg doses, respectively, and was maintained over the entire dosing interval of 24 hours. For LDL-C, plasma levels decreased after 14 days of treatment with all N-(4-tert-Butyl-benzyl)-3-chloro-N-[2-(4-chloro-3-ethyl-phenyl)-ethyl]-2-fluoro-5-trifluoromethyl-benz-amide doses from 10 to 420 mg.

[3] = test system: Human umbilical vein endothelial cells (HUVEC); assay: alamarBlue viability assay in HUVECs; assay type: cell-based; conditions: 72 h
Description: Human umbilical vein endothelial cells (HUVEC), the growth medium EGM and the basal medium EBM was obtained from Lonza. Additional FCS for the starving medium was used form Invitrogen.
The viability assay with alamarBlue® from Invitrogen was done in 96 well gelatin coated plates from BD.
The tested compounds were dissolved in DMSO at a stock concentration of 10 mM.
VEGF-A165 was obtained from R&D Systems® and has been dissolved at a stock concentration of 100 ug/ml in PBS.
HUVECs cells were maintained in Endothial growth medium (EGM) until Passage 5. For the viability assay HUVECs have been seeded in EBM with 0.5% FCS on gelatin coated 96 well plates at a cell density of 11.000 cells/well. Outer wells were left free and have been filled with medium afterwards. Cells were incubated overnight in a cell culture incubator at 37° C. with 5% CO2. Compounds and VEGF have been diluted in EBM/0.5% FCS to a 20× working concentration. 5 ul of the 20× pre-dilution have been added to the cells. HUVECs which have to be intended to grow under hypoxia conditions have been transferred to a cell culture incubator with 1% O2, 5% CO2 and 37° C. HUVECs grown under normoxia conditions were incubated in a normal cell culture incubator. After 72 h, 11 ul of alamarBlue® have been added to each well of the cells subsequently incubated for 4 h in the cell culture incubator. The absorbance has been detected at 570 nm with a reference wavelength of 600 nm.

plasma protein = assay: In vitro plasma protein binding; assay type: in vitro ADME
Description: as §1

[4] = Clinical pharmacokinetics, SAD/MAD study and food effect; assay type: in vivo, human
Description: Two clinical studies have been completed with N-(4-tert-Butyl-benzyl)-3-chloro-N-[2-(4-chloro-3-ethyl-phenyl)-ethyl]-2-fluoro-5-trifluoromethyl-benz-amide in male healthy subject and male mildly dyslipidemic subjects.
Following oral administration of N-(4-tert-Butyl-benzyl)-3-chloro-N-[2-(4-chloro-3-ethyl-phenyl)-ethyl]-2-fluoro-5-trifluoromethyl-benz-amide at single ascending doses (SAD) and multiple ascending doses (MAD) in a first clinical study, a lag time (Tlag) of 0.5 hour was observed, and Cmax was achieved on average at 3 hours post-dose.
Food increased the oral bioavailability of N-(4-tert-Butyl-benzyl)-3-chloro-N-[2-(4-chloro-3-ethyl-phenyl)-ethyl]-2-fluoro-5-trifluoromethyl-benz-amide. A standard breakfast increased exposure in terms of AUC and Cmax by approximately 4- to 6-fold, compared with the fasted state and depending on the formulation used.

[5] = Pharmacokinetic properties and excretion in the rat; assay type: in vivo
Description: as §1, §2

[6] = independent of the route of administration
[7] = multiple doses of up to 420 mg for 14 days, healthy subjects

absolute oral bioavailability [1]: relatively low
dose eliminated renally [1]: Less than 1%
gastrointestinal absorption [1]: limited
terminal half-life [1]: medium to long
total systemic clearance [1]: low
volume of distribution [1]: low
plasma protein binding ([1]; across species): very high
administered dose eliminated via bile and feces [1, 6]: approximately 92%
accumulation ratio for AUC0-24h ([4]; 420 mg once daily, Day 14 to Day 1): 1.4
accumulation with once-daily regimen ([4]; across doses except the highest dose (420 mg)): No accumulation was apparent
half-life ([4]; male, human, in vivo, oral, after multiple doses above 10 mg, read-out: mean terminal half-life): 15 to 35 h
dose up to which AUC0-24h and Cmax increased dose-proportionally ([4]; multiple doses (part 2 MAD)): ≤ 180 mg
lag time (Tlag) ([4]; oral, SAD and MAD, first clinical study): 0.5 h
dose up to which AUC0-24h and Cmax increased dose-proportionally ([4]; single doses (part 1 SAD)): ≤ 360 mg
absolute oral bioavailability [5]: relatively low
dose eliminated renally [5]: Less than 1%
gastrointestinal absorption [5]: limited
terminal half-life [5]: medium to long
total systemic clearance [5]: low
volume of distribution [5]: low
plasma protein binding ([5]; across species): very high
administered dose eliminated via bile and feces [5, 6]: approximately 92%
SMILES: CCc1cc(CCN(Cc2ccc(C(C)(C)C)cc2)C(=O)c2cc(C(F)(F)F)cc(Cl)c2F)ccc1Cl [Compound 1, N-(4-tert-Butyl-benzyl)-3-chloro-N-[2-(4-chloro-3-ethyl-phenyl)-ethyl]-2-fluoro-5-trifluoromethyl-benzamide]
mean LDL-C decrease over the entire dosing interval ([2]; 180 mg dose and higher doses, 14 days): at least 30%
HDL-C maximum mean increase from baseline ([2]; 180 mg, 14 days): 48%
HDL-C maximum mean increase from baseline ([2]; 420 mg, 14 days): 55%
apolipoprotein A-I (apoA-I) [2, 7]: increase
apolipoprotein B-100 (apoB-100) [2, 7]: decrease
alamarBlue assay OD 570 nm-600 nm ([3]; 4.1 nM, hypoxia): −0.0059
alamarBlue assay OD 570 nm-600 nm ([3]; 4.1 nM, normoxia): 0.0073
alamarBlue assay OD 570 nm-600 nm ([3]; 10.2 nM, hypoxia): 0.0152
alamarBlue assay OD 570 nm-600 nm ([3]; 10.2 nM, normoxia): 0.0075
alamarBlue assay OD 570 nm-600 nm ([3]; 25.6 nM, hypoxia): 0.0144
alamarBlue assay OD 570 nm-600 nm ([3]; 25.6 nM, normoxia): 0.0056
alamarBlue assay OD 570 nm-600 nm ([3]; 64 nM, hypoxia): 0.0118
alamarBlue assay OD 570 nm-600 nm ([3]; 64 nM, normoxia): 0.0062
alamarBlue assay OD 570 nm-600 nm ([3]; 160 nM, hypoxia): 0.0233
alamarBlue assay OD 570 nm-600 nm ([3]; 160 nM, normoxia): 0.0127
alamarBlue assay OD 570 nm-600 nm ([3]; 400 nM, hypoxia): 0.0326
alamarBlue assay OD 570 nm-600 nm ([3]; 400 nM, normoxia): 0.0223
alamarBlue assay OD 570 nm-600 nm ([3]; 1000 nM, hypoxia): 0.0967
alamarBlue assay OD 570 nm-600 nm ([3]; 1000 nM, normoxia): 0.0600
alamarBlue assay OD 570 nm-600 nm ([3]; 2500 nM, hypoxia): 0.1488
alamarBlue assay OD 570 nm-600 nm ([3]; 2500 nM, normoxia): 0.1512
effect on viability of HUVECs ([3]; hypoxia): induced a strong cell survival
effect on viability of HUVECs ([3]; normoxia): positive effect of viability
plasma protein binding in vitro (plasma protein): extremely high and concentration-independent
